What was measured:
[1] = target: T1, 85 kD portion of human Tiam-1 protein (Homo sapiens, UniProt Q13009); test: Tiam-1 Rac GEF activity assay (32P-GTP filter binding), 85 kD Tiam-1; format: biochemical; conditions: 85 kD Tiam-1 truncation; room temperature, 10 minutes
T1 construct: This prote in contained an intact PDZ domain, Dbl-homology (DH) domain and adjacent pleckstrin homology (PH) domain; made in house; host or cells: baculovirus-infected Sf9 (S. frugiperda) cells
Description: (§1) The GEF activity of the various Tiam-1 constructs described above was determined in the presence and absence of certain compounds. The following assay was utilized. Reactions were conducted at room temperature in Buffer A (20 mM Hepes pH7.3, 50 mM NaCl, 2 mM DTT, 2 mM MgCl2). All proteins and compounds were diluted to 4× their final concentrations in Buffer A (GTPases were diluted in Buffer A containing 1 μM GDP). To dilute Ascorbyl Stearate, Ascorbyl Palmitate, and Stearic Acid, 25 mM ETOH solutions were slowly added to Buffer A while vortexing vigorously. Other lipids were resuspended in aqueous solution with vortexing and bath sonication and then diluted into Buffer A. Reactions were prepared and at time 0, λ-^32P-GTP (DuPont NEN #NEG006H) was added to 4.5 nM, and after 10 minutes reactions were stopped by filtering onto nitrocellulose filters (Millipore #HAWP02500) and immediately washed with wash buffer (25 mM Tris 7.5, 100 mM NaCl, 30 mM MgCl2). Bound λ-^32P-GTP was measured, using standard techniques.
The 85 kD portion of human Tiam-1 protein was produced in insect cells and purified by affinity chromatography, as described above. This prote in contained an intact PDZ domain, Dbl-homology (DH) domain and adjacent pleckstrin homology (PH) domain (FIG. 3). […] Several other lipids were tested to determine the specificity of activation. […] As a control, experiments were run to determine if IP3, IP2, ascorbic acid, stearic acid and ascorbic acid with stearic acid were sufficient to activate the GEF activity of Tiam-1.

135 kD Tiam-1 truncation = target: T2, 135 kD Tiam-1 truncation (Homo sapiens, UniProt Q13009); test: Tiam-1 Rac GEF activity assay (32P-GTP filter binding), 135 kD Tiam-1; format: biochemical
T2 construct: made in house; host or cells: baculovirus-infected Sf9 (S. frugiperda) cells
Description: as §1
(§2) It has been previously reported that Tiam-1 has GEE activity in the absence absence of lipids. See, Michiels, F., Habets, G. G., Stam, J. C., van der Kammen, R. A., and Collard, J. G. (1995) Nature 375,338-340. Those studies used a miouse version containing additional upstream sequences, including the N-terminal PH domain and the coiled-coil region. […]

Type II Rac-GEF = target: T3, Type II Rac-GEF (Homo sapiens, UniProt Q8N5V2); test: Guanine nucleotide exchange activity of Type II Rac-GEF with added PH domain ligand; format: biochemical; conditions: Type II form containing the Dbl insert region
T3 construct: made in house; host or cells: E. coli BL21(DE3)pLysS, plasmid pET21a
T3 sequence (Q8N5V2 264-710 limits assumed): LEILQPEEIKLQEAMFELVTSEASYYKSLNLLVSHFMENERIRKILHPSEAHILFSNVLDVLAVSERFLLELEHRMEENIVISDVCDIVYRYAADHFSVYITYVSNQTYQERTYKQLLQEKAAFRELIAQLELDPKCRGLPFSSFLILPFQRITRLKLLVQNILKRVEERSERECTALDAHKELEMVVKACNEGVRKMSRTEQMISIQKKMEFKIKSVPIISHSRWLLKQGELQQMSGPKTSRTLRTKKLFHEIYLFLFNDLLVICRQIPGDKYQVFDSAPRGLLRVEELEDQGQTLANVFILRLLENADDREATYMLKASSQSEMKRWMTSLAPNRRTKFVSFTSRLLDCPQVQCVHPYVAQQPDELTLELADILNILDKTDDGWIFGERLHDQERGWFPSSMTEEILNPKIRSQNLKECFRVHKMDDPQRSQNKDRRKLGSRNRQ
Description: (§3) Two Rac-GEFs were tested for guanine nucleotide activity. Firstly, a Glu-epitope tag (MEYMPMEIRHD) (SEQ ID NO:32) was engineered onto the carboxy-terminal 423 amino acids of the Rac GEF encoded by EST No. 167059 by introducing the oligos 5′-[…]-3′ SEQ ID NO.5 and the complementary 5′-[…]-3′ SEQ ID NO.6 into the XhoI/EcoRI sites of the clone. The protein encoded by this construct is referred to as Type I Rac-GEF.
(§4) Next, the sequence encoding the insertion in the Dbl homology region, as described in Example 1, was engineered into the open reading frame in the expression plasmid pET21a (Novagen). The protein encoded by this construct is referred to as Type II Rac-GEF. The resulting expression plasmids were introduced into E. coli strain BL21(DE3)pLysS (Novagen), and the epitope tagged protein expression was induced with IPTG. The expressed proteins were purified using a resin with the antibody to the Glu-epitope covalently attached. The resulting proteins were partially pure and were assayed for exchange activity on Rac1, RhoA and Cdc42. See, Hart, in U.S. Ser. No. 60/029,979, filed Nov. 6, 1996 now abandoned.

Type I Rac-GEF = test: Guanine nucleotide exchange activity of Type I Rac-GEF with added PH domain ligand; format: biochemical, human; conditions: Type I form lacking the Dbl insert region
Description: as §3, §4

[2] = tested on: Other truncations of Tiam-1, all containing the DH and PH domains; test: Tiam-1 Rac GEF activity assay, other truncations containing the DH and PH domains; format: biochemical, human; conditions: other Tiam-1 truncations containing DH and PH domains
Description: as §1, §2

ΔPH versions of Tiam-1 = test: Tiam-1 Rac GEF activity assay, truncations with deleted C-terminal PH domain; format: biochemical, human; conditions: truncations lacking half of the C-terminal PH domain and the rest of the C-terminus
Description: ΔPH versions of Tiam-1: The oligonucleotides 5′-[…]-3′ SEQ ID NO.24 and 5′-[…]-3′ SEQ ID NO.25 were used as linkers to recircularize Eco47III (4487) and XmaI-digested pAcC4-based expression vectors containing the 135 kD, 106 kD, 85 kD, and 66 kD versions of Tiam-1.
as §1, with “techniques. […]” for “techniques.”

RhoA = test: Exchange activity of Rac GEF on RhoA; format: biochemical; conditions: partially pure Glu-tagged protein
Description: as §3, §4

Rac1 = test: Exchange activity of Rac GEF on Rac1; format: biochemical; conditions: partially pure Glu-tagged protein
Description: as §3, §4

Cdc42 = test: Exchange activity of Rac GEF on Cdc42; format: biochemical; conditions: partially pure Glu-tagged protein
Description: as §3, §4

T1 sequence (Q13009 837-1591 limits assumed): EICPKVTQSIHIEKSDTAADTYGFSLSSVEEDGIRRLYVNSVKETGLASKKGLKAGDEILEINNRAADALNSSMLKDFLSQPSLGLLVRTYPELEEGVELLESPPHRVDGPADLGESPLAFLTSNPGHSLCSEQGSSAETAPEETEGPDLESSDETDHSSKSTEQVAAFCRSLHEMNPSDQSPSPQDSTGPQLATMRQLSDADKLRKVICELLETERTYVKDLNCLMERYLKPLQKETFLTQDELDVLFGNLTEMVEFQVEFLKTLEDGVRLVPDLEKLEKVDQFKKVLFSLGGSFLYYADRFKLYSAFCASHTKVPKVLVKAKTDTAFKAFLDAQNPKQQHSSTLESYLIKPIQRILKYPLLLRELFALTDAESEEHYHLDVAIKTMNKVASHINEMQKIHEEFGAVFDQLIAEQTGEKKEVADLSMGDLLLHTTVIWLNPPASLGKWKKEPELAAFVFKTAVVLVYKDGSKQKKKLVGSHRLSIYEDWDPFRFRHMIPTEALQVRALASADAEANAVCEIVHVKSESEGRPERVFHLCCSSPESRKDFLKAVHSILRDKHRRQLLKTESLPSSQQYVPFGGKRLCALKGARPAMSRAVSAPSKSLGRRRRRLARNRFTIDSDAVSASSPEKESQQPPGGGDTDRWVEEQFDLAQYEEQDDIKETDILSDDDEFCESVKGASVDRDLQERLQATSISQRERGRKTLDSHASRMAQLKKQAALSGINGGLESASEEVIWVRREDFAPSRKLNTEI
T2 sequence (Q13009 402-1591 limits assumed): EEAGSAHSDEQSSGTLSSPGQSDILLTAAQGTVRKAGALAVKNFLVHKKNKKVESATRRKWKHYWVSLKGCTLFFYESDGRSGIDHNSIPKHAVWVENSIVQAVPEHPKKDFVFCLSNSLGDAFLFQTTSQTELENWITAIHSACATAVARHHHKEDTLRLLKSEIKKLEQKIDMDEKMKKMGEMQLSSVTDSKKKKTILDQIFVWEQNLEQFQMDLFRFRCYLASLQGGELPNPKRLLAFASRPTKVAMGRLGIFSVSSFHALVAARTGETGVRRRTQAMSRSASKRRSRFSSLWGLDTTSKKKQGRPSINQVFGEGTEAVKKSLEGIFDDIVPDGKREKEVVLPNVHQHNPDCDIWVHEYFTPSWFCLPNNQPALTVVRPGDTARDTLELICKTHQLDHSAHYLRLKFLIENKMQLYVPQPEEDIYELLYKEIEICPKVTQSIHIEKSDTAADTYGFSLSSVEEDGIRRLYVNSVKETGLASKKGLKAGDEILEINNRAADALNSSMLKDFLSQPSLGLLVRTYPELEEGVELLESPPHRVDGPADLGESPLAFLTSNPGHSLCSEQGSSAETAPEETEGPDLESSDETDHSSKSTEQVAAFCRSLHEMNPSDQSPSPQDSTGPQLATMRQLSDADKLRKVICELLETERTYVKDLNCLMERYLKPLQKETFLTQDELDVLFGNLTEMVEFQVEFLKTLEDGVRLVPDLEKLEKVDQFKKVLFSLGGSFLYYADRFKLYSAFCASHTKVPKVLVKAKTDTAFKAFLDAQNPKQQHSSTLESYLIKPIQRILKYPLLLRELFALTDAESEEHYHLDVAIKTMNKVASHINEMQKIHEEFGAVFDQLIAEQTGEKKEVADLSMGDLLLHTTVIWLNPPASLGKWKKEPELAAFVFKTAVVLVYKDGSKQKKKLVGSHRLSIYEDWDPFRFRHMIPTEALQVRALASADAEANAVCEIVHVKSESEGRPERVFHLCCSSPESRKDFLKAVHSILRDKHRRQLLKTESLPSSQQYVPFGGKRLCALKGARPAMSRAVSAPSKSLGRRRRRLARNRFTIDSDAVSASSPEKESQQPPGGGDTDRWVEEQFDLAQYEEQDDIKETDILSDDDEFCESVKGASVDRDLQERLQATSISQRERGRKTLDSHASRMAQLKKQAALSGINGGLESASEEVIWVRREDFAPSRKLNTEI

For `CCCCCCCCCCCCCCCC(=O)OC[C@H](O)[C@H]1OC(=O)C(O)=C1O` [Ascorbyl palmitate], the “stimulation of Tiam-1 GEF activity (nucleotide exchange on Rac 1)” value (from here on “stimulation … (nucleotide exchange on Rac 1)”) [1] was “significantly enhanced”.

For `O[C@@H](CS)[C@@H](O)CS` [DTT], the “stimulation … (nucleotide exchange on Rac 1)” value [1] was “not to significantly stimulate”.

For `O=P(O)(O)O[C@@H]1[C@H](O)[C@H](O)[C@@H](OP(=O)(O)O)[C@H](OP(=O)(O)O)[C@H]1O` [IP3], the “stimulation … (nucleotide exchange on Rac 1)” value [1] was “incapable of stimulating GEF activity”.

In the case of `O=C(O)CCP(CCC(=O)O)CCC(=O)O` [TCEP, Tris (2-carboxyethyl)phosphine], the “stimulation … (nucleotide exchange on Rac 1)” value [1] is reported as “not to significantly stimulate”.

With `O=C1O[C@H]([C@@H](O)CO)C(O)=C1O` [ascorbic acid] the “stimulation … (nucleotide exchange on Rac 1)” value [1] was “incapable of stimulating GEF activity”.

`CCCCCCCCCCCCCCCCCC(=O)OC[C@H](O)[C@H]1OC(=O)C(O)=C1O` [ascorbyl stearate] was tested, and the “stimulation of Tiam-1 GEF activity towards Rac” value (135 kD Tiam-1 truncation) was “greatly stimulated”, the “stimulation … (nucleotide exchange on Rac 1)” value [1] was “stimulated the rate of Tiam-1-mediated nucleotide exchange” and the “effect of addition on exchange activity of Type II Rac-GEF” value (Type II Rac-GEF) was “strongly stimulated”. The “effect of addition on exchange activity of Type I Rac-GEF” value (Type I Rac-GEF) was “unaffected”, the “stimulation of GEF activity on Rac 1” value [2] was “stimulated GEF activity” and the “activation of Tiam-1 GEF activity” value (ΔPH versions of Tiam-1) was “not activated”.

With `CCCCCCCCO[C@@H]1O[C@H](CO)[C@@H](O)[C@H](O)[C@H]1O` [nOG] the “stimulation … (nucleotide exchange on Rac 1)” value [1] was “not to significantly stimulate”.

With `CCCCCCCCCCCCCCCCCC(=O)O` [stearic acid] the “stimulation … (nucleotide exchange on Rac 1)” value [1] was “incapable of stimulating GEF activity”.

With NP40 the “stimulation … (nucleotide exchange on Rac 1)” value [1] was “not to significantly stimulate”.

For TRITON X-100, the “stimulation … (nucleotide exchange on Rac 1)” value [1] was “not to significantly stimulate”.

With phosphatidyiholine the “stimulation … (nucleotide exchange on Rac 1)” value [1] was “little or no effect”.

phosphatidylglycerol was tested, and the “stimulation … (nucleotide exchange on Rac 1)” value [1] was “little or no effect”.

phosphatidylinositol was tested, and the “stimulation … (nucleotide exchange on Rac 1)” value [1] was “little or no effect”.

In the case of “phosphatidylinositol-3,4,5-trisphosphate”, the “stimulation … (nucleotide exchange on Rac 1)” value [1] is reported as “weak effects”.

In the case of phosphatidylinositol-4,5-bisphosphate, the “stimulation … (nucleotide exchange on Rac 1)” value [1] is reported as “significantly enhanced”.

With phosphatidylinositol-4-phosphate the “stimulation … (nucleotide exchange on Rac 1)” value [1] was “significantly enhanced”.

phosphatidylserine was tested, and the “stimulation … (nucleotide exchange on Rac 1)” value [1] was “weak effects”.

B1: Rac GEF: Glu-epitope tagged Type I and Type II Rac-GEF proteins expressed in E. coli, partially pure (protein)
chain: MEYMPMEIRHDLEILQPEEIKLQEAMFELVTSEASYYKSLNLLVSHFMENERIRKILHPSEAHILFSNVLDVLAVSERFLLELEHRMEENIVISDVCDIVYRYAADHFSVYITYVSNQTYQERTYKQLLQEKAAFRELIAQLELDPKCRGLPFSSFLILPFQRITRLKLLVQNILKRVEERSERECTALDAHKELEMVVKACNEGVRKMSRTEQMISIQKKMEFKIKSVPIISHSRWLLKQGELQQMSGPKTSRTLRTKKLFHEIYLFLFNDLLVICRQIPGDKYQVFDSAPRGLLRVEELEDQGQTLANVFILRLLENADDREATYMLKASSQSEMKRWMTSLAPNRRTKFVSFTSRLLDCPQVQCVHPYVAQQPDELTLELADILNILDKTDDGWIFGERLHDQERGWFPSSMTEEILNPKIRSQNLKECFRVHKMDDPQRSQNKDRRKLGSRNRQ
With B1 the “exchange activity on RhoA” value (RhoA) was “displays activity”, the “exchange activity on Rac1” value (Rac1) was “primarily selective” and the “exchange activity on Cdc42” value (Cdc42) was “displays activity”.

— US6340575B1, “Methods and compositions for treating abnormal cell growth related to unwanted guanine nucleotide exchange factor activity” (Onyx Pharmaceuticals, Inc., priority 1997, dated 2002)
